Assays:
Assay in all cases: biochemical
[1] = molecular target: T1, proteases (Homo sapiens, UniProt O75604); conditions: Ubiquitin carboxy-terminal hydrolase 2; reference at 1 μM
T1 construct: BPS Biosciences (contract assay)

[2] = molecular target: T2, proteases (Homo sapiens, UniProt P09936); conditions: Ubiquitin carboxy-terminal hydrolase L1; reference at 100 nM
T2 construct: BPS Biosciences (contract assay)

[3] = molecular target: T3, proteases (Homo sapiens, UniProt P15374); conditions: Ubiquitin carboxy-terminal hydrolase L3; reference at 10 nM
T3 construct: BPS Biosciences (contract assay)

[4] = molecular target: T4, proteases (Homo sapiens, UniProt P40818); conditions: Ubiquitin carboxy-terminal hydrolase 8; reference at 1 μM
T4 construct: BPS Biosciences (contract assay)

[5] = molecular target: T5, proteases (Homo sapiens, UniProt P45974); conditions: Ubiquitin carboxy-terminal hydrolase 5; reference at 1 μM
T5 construct: BPS Biosciences (contract assay)

[6] = molecular target: T6, proteases (Homo sapiens, UniProt P54252); conditions: Ataxin3; reference at 10 μM
T6 construct: BPS Biosciences (contract assay)

[7] = molecular target: T7, proteases (Homo sapiens, UniProt P54578); conditions: Ubiquitin carboxy-terminal hydrolase 14; reference at 100 nM
T7 construct: BPS Biosciences (contract assay)

[8] = molecular target: T8, proteases (Homo sapiens, UniProt Q14694); conditions: Ubiquitin carboxy-terminal hydrolase 10; reference at 1 μM
T8 construct: BPS Biosciences (contract assay)

[9] = molecular target: T9, proteases (Homo sapiens, UniProt Q8N6M0); conditions: Deubiquitinase OTUD6B; reference at 1 μM
T9 construct: BPS Biosciences (contract assay)

[10] = molecular target: T10, proteases (Homo sapiens, UniProt Q93009); conditions: Ubiquitin carboxy-terminal hydrolase 7; reference at 1 μM
T10 construct: BPS Biosciences (contract assay)

[11] = molecular target: T11, proteases (Homo sapiens, UniProt Q12884); conditions: FAP; reference at 100 nM
T11 construct: BPS Biosciences (contract assay)

[12] = molecular target: T12, proteases (Homo sapiens, UniProt Q6V1X1); conditions: DPP8; reference at 200 μM
T12 construct: BPS Biosciences (contract assay)

[13] = molecular target: proteases (Homo sapiens, UniProt Q9UHL4); conditions: DPP7; reference at 200 μM

T4 sequence (P40818 whole entry): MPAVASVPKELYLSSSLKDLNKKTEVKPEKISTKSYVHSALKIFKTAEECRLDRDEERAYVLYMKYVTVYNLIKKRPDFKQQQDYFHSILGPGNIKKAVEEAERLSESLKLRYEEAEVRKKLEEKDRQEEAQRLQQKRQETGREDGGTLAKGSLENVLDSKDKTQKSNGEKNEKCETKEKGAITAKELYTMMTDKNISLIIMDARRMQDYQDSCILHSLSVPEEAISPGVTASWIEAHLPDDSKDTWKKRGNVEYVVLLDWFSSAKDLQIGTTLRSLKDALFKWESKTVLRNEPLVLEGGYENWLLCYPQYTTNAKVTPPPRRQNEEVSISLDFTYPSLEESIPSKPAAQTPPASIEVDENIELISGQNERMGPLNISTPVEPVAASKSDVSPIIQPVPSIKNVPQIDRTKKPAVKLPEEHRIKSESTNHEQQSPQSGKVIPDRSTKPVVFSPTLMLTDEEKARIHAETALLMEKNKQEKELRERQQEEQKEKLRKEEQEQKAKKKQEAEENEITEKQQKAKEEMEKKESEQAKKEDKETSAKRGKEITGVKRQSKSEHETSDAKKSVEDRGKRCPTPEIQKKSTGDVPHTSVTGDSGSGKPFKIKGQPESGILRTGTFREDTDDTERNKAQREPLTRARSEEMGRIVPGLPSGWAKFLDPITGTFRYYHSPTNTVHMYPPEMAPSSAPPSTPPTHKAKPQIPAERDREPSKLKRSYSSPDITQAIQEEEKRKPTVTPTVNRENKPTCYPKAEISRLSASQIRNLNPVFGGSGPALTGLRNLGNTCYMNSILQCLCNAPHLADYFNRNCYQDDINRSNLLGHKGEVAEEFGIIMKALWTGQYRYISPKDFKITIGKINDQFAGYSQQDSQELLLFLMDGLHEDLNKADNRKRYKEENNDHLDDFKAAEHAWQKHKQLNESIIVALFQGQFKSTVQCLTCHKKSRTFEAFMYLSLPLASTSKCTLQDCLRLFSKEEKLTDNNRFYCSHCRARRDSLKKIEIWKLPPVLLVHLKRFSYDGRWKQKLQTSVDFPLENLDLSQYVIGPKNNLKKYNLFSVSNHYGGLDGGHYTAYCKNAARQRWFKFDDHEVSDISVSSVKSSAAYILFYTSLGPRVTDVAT
T8 sequence (Q14694 whole entry): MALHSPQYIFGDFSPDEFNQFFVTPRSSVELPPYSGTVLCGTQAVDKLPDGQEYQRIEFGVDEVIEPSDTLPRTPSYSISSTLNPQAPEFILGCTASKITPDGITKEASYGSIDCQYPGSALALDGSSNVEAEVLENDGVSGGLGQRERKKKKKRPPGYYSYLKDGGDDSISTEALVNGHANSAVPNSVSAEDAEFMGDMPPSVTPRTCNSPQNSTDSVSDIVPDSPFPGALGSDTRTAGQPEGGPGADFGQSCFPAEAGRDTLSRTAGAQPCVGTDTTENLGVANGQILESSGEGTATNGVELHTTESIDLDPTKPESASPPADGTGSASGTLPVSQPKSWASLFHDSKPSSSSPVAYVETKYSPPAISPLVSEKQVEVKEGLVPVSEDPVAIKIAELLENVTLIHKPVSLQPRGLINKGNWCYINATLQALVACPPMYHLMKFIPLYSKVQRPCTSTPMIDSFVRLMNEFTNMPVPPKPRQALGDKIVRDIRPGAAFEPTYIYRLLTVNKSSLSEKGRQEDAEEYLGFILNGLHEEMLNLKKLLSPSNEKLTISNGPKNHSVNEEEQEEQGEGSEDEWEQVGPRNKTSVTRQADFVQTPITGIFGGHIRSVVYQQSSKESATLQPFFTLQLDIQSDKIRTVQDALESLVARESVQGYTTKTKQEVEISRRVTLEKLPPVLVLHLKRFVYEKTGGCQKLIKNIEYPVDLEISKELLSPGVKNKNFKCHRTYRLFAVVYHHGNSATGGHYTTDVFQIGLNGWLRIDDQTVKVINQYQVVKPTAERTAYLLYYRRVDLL
T11 sequence (Q12884 whole entry): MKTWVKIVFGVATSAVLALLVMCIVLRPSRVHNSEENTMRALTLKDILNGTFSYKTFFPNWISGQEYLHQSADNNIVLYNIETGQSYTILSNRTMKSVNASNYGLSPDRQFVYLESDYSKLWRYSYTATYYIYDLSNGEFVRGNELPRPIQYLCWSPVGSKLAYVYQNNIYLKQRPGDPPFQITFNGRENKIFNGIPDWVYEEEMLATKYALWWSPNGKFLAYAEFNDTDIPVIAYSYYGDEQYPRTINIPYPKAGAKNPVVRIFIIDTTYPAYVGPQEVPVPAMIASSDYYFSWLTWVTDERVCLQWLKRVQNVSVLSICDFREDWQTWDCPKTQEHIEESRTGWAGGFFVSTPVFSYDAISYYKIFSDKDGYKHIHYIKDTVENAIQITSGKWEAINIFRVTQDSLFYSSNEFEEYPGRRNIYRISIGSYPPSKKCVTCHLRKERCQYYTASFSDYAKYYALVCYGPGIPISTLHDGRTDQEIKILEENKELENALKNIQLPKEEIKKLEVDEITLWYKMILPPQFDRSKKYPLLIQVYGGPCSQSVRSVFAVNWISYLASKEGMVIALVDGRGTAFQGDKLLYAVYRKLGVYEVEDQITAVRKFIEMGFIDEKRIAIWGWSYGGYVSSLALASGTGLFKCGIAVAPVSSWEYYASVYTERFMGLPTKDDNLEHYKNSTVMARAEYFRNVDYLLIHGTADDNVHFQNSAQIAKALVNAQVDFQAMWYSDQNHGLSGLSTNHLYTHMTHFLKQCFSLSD
T7 sequence (P54578 whole entry): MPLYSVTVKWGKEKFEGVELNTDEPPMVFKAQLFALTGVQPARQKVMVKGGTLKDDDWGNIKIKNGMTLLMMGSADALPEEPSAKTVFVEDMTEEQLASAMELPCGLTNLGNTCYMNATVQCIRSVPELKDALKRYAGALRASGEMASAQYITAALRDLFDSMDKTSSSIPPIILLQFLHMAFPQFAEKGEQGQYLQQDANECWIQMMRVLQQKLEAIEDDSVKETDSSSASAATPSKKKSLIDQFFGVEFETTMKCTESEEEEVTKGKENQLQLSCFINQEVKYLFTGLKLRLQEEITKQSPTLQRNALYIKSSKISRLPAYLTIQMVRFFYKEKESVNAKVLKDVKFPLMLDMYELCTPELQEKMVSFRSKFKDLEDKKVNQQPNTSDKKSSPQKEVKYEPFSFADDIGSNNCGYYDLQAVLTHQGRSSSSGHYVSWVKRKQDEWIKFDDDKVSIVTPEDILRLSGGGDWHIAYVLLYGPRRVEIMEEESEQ
T1 sequence (O75604 whole entry): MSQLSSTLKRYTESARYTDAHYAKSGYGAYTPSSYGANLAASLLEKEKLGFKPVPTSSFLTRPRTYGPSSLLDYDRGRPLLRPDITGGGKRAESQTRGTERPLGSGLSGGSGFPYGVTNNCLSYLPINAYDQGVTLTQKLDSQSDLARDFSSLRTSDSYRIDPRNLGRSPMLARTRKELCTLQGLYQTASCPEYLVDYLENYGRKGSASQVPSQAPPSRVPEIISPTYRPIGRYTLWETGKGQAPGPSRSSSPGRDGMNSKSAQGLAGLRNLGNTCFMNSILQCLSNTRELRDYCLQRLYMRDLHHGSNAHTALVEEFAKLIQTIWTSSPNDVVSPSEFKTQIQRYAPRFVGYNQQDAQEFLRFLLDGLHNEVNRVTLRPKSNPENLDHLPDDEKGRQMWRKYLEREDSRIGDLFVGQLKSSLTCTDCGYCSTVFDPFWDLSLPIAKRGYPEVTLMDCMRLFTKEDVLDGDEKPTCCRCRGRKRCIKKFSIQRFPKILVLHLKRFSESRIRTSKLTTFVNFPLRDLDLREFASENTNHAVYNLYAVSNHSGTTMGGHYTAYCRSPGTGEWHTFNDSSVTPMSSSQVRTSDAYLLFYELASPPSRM
T2 sequence (P09936 whole entry): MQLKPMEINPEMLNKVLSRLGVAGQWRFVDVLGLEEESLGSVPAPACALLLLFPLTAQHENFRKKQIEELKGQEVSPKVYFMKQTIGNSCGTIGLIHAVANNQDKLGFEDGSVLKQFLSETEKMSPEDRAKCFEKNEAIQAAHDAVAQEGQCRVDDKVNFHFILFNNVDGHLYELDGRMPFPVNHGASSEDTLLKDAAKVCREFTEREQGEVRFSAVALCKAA
T6 sequence (P54252 whole entry): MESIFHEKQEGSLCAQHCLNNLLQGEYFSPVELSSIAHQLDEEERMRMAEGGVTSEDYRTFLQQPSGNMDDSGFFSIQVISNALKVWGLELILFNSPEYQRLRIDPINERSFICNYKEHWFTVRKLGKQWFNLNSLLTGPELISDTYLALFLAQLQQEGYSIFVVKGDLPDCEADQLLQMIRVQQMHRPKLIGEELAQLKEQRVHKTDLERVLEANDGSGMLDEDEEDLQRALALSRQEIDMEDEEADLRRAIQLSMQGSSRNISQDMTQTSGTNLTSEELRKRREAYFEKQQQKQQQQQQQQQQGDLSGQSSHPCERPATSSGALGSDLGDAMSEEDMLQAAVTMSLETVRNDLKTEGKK
T9 sequence (Q8N6M0 whole entry): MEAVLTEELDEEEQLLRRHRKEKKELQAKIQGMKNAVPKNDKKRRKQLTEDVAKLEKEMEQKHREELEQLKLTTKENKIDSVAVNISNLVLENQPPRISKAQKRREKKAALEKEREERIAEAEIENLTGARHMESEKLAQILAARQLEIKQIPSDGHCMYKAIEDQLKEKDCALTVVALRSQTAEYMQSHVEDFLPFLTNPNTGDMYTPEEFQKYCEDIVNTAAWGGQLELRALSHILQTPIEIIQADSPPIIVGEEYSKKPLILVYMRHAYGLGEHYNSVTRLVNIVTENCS
T3 sequence (P15374 whole entry): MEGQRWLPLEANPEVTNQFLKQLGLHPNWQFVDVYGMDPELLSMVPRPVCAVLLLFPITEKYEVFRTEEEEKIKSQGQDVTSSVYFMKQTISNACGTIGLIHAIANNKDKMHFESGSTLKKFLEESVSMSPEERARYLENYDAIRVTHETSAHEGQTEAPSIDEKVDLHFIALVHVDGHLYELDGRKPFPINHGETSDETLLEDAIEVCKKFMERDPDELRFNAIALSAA

## Ub-Aldehyde
[1]
  Percentage inhibition (%) Reference: 91%
[2]
  Percentage inhibition (%) Reference: 92%
[3]
  Percentage inhibition (%) Reference: 95%
[4]
  Percentage inhibition (%) Reference: 73%
[5]
  Percentage inhibition (%) Reference: 84%
[6]
  Percentage inhibition (%) Reference: 77%
[7]
  Percentage inhibition (%) Reference: 96%
[8]
  Percentage inhibition (%) Reference: 82%
[9]
  Percentage inhibition (%) Reference: 97%
[10]
  Percentage inhibition (%) Reference: 95%

## N#C[C@@H]1CC(F)(F)CN1C(=O)CNC(=O)c1ccnc2ccccc12 [SP-13786]
[11]
  Percentage inhibition (%) Reference: 100%

## N#Cc1ccc(NCCNCC(=O)N2N=CCC2C#N)nc1 (stereo not shown) [KR62436]
[12]
  Percentage inhibition (%) Reference: 96%
[13]
  Percentage inhibition (%) Reference: 83%
